From patent US20220273759A1, “PHARMACEUTICAL ASSOCIATION FOR CONVERTING A NEOPLASTIC CELL INTO A NON-NEOPLASTIC CELL AND USES THEREOF” (HISTIDE AG, priority 2015, published 2022)

What was measured:
[1] = test system: human adenocarcinoma cells; test: Recoding via quantification of pRB and P53, adenocarcinoma cells; assay type: cell-based; conditions: Table 6, peptide in association with PET
Method: (§1) The cells were first fixed for 20 min with 4% paraformaldehyde/PBS at 4° C. After fixation, the cells were permeabilized in PBS containing 1% Triton X-100 for 15 min. Protein immunofluorescent visualization was performed by first treating the cells with 1% (v/v) specific monoclonal antibodies for 1 hour at 37° C. Then the samples were incubated with Alexa Fluor® 568 or 647 (F(ab′)2 fragment of IgG(H+L)) during 30 min at room temperature. The cell nuclei were counterstained in 20 ng/mL DAPI for 10 min at room temperature.
(§2) For this type of quantification the freeware image analysis ImageJ® software was used. The raw image was first converted to an 8-bit file, and then the unsharp mask feature was used (settings 1:0.2) to remove the image background (rolling ball radius 10). After smoothing, the resulting image, which appears similar to the original photomicrograph but with minimal background, was then converted to a binary image by setting a threshold. Threshold values were determined empirically by selecting a setting, which gave the most accurate binary image for a subset of randomly selected photomicrographs. The cell area was determined by manual delineation on raw fluorescent images. Total contact area and mean contact area per cell were calculated by “analyse particules” in ImageJ®. A minimum of 50 cells per condition were analyzed. […]

[2] = test system: human rhabdosarcoma cells; test: Recoding via quantification of pRB and P53, rhabdosarcoma cells; assay type: cell-based; conditions: Table 6, peptide in association with PET
Method: as §1, §2

[3] = Stability of non-covalent association (release of FITC-labelled GFR-binding compound from carrier); assay type: physicochemical; conditions: after 3, 7 or 10 days
Method: Non-covalent associations of the bioactive carriers were performed under atmospheric conditions (air) at room temperature (about 22° C.). The non-covalent association was carried out using a mixture of GFR-binding compound of SEQ ID NO: 9 (concentration of 1×10^−3 M) with the apatite ceramics or a mixture of GFR-binding compound of SEQ ID NO: 10 (concentration of 1×10^−3 M) with the type-I collagen sponge. The non-covalent pharmaceutical associations were characterized by covalently associating fluorescent GFR-binding compounds of SEQ ID NO: 9 and 10 (covalently bound to fluorescein isothiocyanate (FITC), FIG. 1).

Paxillin = Paxillin gene expression by RT-PCR in osteosarcoma cells; assay type: cell-based; conditions: PET carrier, after 24 hours
Method: (§3) After 24 hours of culture, total RNA was extracted by using the RNeasy total RNA kit (Qiagen®) according to the manufacturer's instructions. Purified total RNA was used as a template in order to make cDNA by a reverse transcription reaction (Gibco Brl®) with random primers (Invitrogen®). The cDNA was then used as a template for a real-time PCR amplification in the presence of SYBR green reagents (Bio-Rad®) by using a thermocycler (iCycler, Biorad®). Data were analyzed with the iCycler IQ™® software and compared by the ΔΔCt method. Briefly, the mean Ct value of the target gene was normalized to its averaged Ct values of the housekeeping gene (GAPDH) to give a ΔCt value, which was then normalized to a control sample to obtain a ΔΔCt value. The results were obtained from two series of experiments performed in triplicate.
(§4) Neoplastic cells (in this example osteosarcoma cells) were cultured on pharmaceutical associations comprising PET as a bioactive carrier and one of GFR-binding compounds of SEQ ID NO: 12, 19, 30 or 39. After 24 hours, the Paxillin and Vinculin gene expression decreased as shown by RT-PCR (FIG. 9).

Ras/MAP kinase = test: Adhesion checkpoint activation, western blot of ERK phosphorylation in osteosarcoma cells; assay type: cell-based; conditions: PET carrier, after 24 hours
Method: (§5) After 24 hours of culture, cells were permeabilized (10% SDS, 25 mM NaCl, 10 nM pepstatin and 10 nM leupeptin in distilled water and loading buffer), boiled for 10 minutes and resolved by reducing PAGE (Invitrogen). Proteins were transferred onto nitrocellulose, blocked, and labeled with HRP-conjugated antibodies (Invitrogen). […] Phosphor-Smad1/5/8 was blotted by treating the nitrocellulose with monoclonal anti-p-Smad1/5/8 (Santa Cruz Biotechnology). For all of the experiments the western blot was performed in triplicate, along with an additional blot for actin and coomassie blue staining to ensure constant protein load among samples.
(§6) Neoplastic cells (in this example osteosarcoma cells) were cultured on pharmaceutical associations comprising PET as a bioactive carrier and one of GFR-binding compounds of SEQ ID NO: 12, 19, 30 or 39. The main signaling pathways include: Ras/MAP kinase, FAK/Src kinase and PIP2 which are decreased after 24 hours as shown by western blot quantifications (FIG. 8). […] Finally, a decrease of 3-phosphoinositide-dependent protein kinase 1 (PDK1) protein expression was also was observed (FIG. 8C).

[4] = Adhesion checkpoint activation, western blot of PDK1 in osteosarcoma cells; assay type: cell-based; conditions: PET carrier, after 24 hours
Method: as §5, §6

[5] = test system: Cyclin D (Cyclin D1, Cyclin D2 and Cyclin D3); test: Cyclin D profile by RT-PCR in osteosarcoma cells; assay type: cell-based; conditions: PET carrier, after the first 30 min of cell culture
Source text: There are many ways to test, measure and represent the inhibitory effect of a given substance on the gene or protein expression of cyclins D, but for the purpose of the present disclosure, and for the avoidance of any doubts, the inhibition values of a given pharmaceutical association or composition as defined herein is a measure of the gene expression of cyclins D as provided by RT-PCR. It is to be understood that the values of the gene expression of cyclins D disclosed herein correspond to the total gene expression of all cyclins D present in the tested cell i.e. D1, D2 and D3 as known at the date of the present disclosure.
as §3
Neoplastic cells (in this example osteosarcoma cells) were cultured on pharmaceutical associations comprising PET as a bioactive carrier and one of GFR-binding compounds of SEQ ID NO: 12, 19, 30 or 39. […]

Vinculin = Vinculin gene expression by RT-PCR in osteosarcoma cells; assay type: cell-based; conditions: PET carrier, after 24 hours
Method: as §3, §4

[6] = test system: mesenchymal chondrosarcoma cells; test: Recoding via quantification of pRB and P53, chondrosarcoma cells; assay type: cell-based; conditions: Table 6, peptide in association with PET
Method: as §1, §2

## RVPSTSSAPTKMKPLSMLYV (Non-cyclic GFR-binding peptide) [SEQ ID NO: 227]
[1]
  P53 (%): 32%
  pRB (%): 14%

## RVPSTSSTQVDLNAISVLYF (Non-cyclic GFR-binding peptide) [SEQ ID NO: 217]
[2]
  P53 (%): 24%
  pRB (%): 18%

## RVPSTSSTQVKMSAISMLYL (Non-cyclic GFR-binding peptide) [SEQ ID NO: 213]
[2]
  P53 (%): 26%
  pRB (%): 12%

## RVPSTSSVPAEESNITVQIM (Non-cyclic GFR-binding peptide) [SEQ ID NO: 234]
[1]
  P53 (%): 45%
  pRB (%): 22%

## RVPSTSSVPEKMEPLTMLYY (Non-cyclic GFR-binding peptide) [SEQ ID NO: 231]
[1]
  P53 (%): 22%
  pRB (%): 18%

## SEQ ID NO: 9: GFR-binding compound of the sequence listing, non-covalently associated with apatite ceramics; sequence not shown in this part (AVPKASSAPTKLSAISMLYL; Non-cyclic GFR-binding peptide)
[3]
  release of GFR-binding compounds from the carrier: no significant release

## SEQ ID NO: 12: GFR-binding compound of the sequence listing, tested on PET as bioactive carrier; sequence not shown in this part (KVPKASSVPTELSAISTLYL; Non-cyclic GFR-binding peptide)
Paxillin
  Paxillin gene expression: decreased
Ras/MAP kinase
  phosphorylation at Thr202 and Tyr204 on ERK: absence of phosphorylation
[4]
  3-phosphoinositide-dependent protein kinase 1 (PDK1) protein expression: decrease
[5]
  Cyclin D gene expression (arithmetic mean of Cyclin D1, D2 and D3): decreased
Vinculin
  Vinculin gene expression: decreased

## SEQ ID NO: 19: GFR-binding compound of the sequence listing, tested on PET as bioactive carrier; sequence not shown in this part (RKIPKAGGVPTELSAISTLYL; Non-cyclic GFR-binding peptide)
Paxillin
  Paxillin gene expression: decreased
Ras/MAP kinase
  phosphorylation at Thr202 and Tyr204 on ERK: absence of phosphorylation
[4]
  3-phosphoinositide-dependent protein kinase 1 (PDK1) protein expression: decrease
[5]
  Cyclin D gene expression (arithmetic mean of Cyclin D1, D2 and D3): decreased
Vinculin
  Vinculin gene expression: decreased

## SEQ ID NO: 30: GFR-binding compound of the sequence listing, tested on PET as bioactive carrier; sequence not shown in this part (KIPKASSVPTELEPLPIVYY; Non-cyclic GFR-binding peptide)
Paxillin
  Paxillin gene expression: decreased
Ras/MAP kinase
  phosphorylation at Thr202 and Tyr204 on ERK: absence of phosphorylation
[4]
  3-phosphoinositide-dependent protein kinase 1 (PDK1) protein expression: decrease
[5]
  Cyclin D gene expression (arithmetic mean of Cyclin D1, D2 and D3): decreased
Vinculin
  Vinculin gene expression: decreased

## SEQ ID NO: 39: GFR-binding compound of the sequence listing, tested on PET as bioactive carrier; sequence not shown in this part (KIPKASSVPTELEPLPILYF; Non-cyclic GFR-binding peptide)
Paxillin
  Paxillin gene expression: decreased
Ras/MAP kinase
  phosphorylation at Thr202 and Tyr204 on ERK: absence of phosphorylation
[4]
  3-phosphoinositide-dependent protein kinase 1 (PDK1) protein expression: decrease
[5]
  Cyclin D gene expression (arithmetic mean of Cyclin D1, D2 and D3): decreased
Vinculin
  Vinculin gene expression: decreased

## STPPTSSAPVGQSPISMLYI (Non-cyclic GFR-binding peptide) [SEQ ID NO: 220]
[6]
  P53 (%): 34%
  pRB (%): 15%

## STPPTSSSRVQLSAISMLYL (Non-cyclic GFR-binding peptide) [SEQ ID NO: 212]
[2]
  P53 (%): 27%
  pRB (%): 11%

## STPPTSSTPTKMSNITTQIM (Non-cyclic GFR-binding peptide) [SEQ ID NO: 233]
[1]
  P53 (%): 43%
  pRB (%): 23%

## STPPTSSVPTEVSPINTLYF (Non-cyclic GFR-binding peptide) [SEQ ID NO: 224]
[6]
  P53 (%): 26%
  pRB (%): 13%

## STPPTSSVSQKMKPLSILYV (Non-cyclic GFR-binding peptide) [SEQ ID NO: 228]
[1]
  P53 (%): 26%
  pRB (%): 18%
